One data set concerns MRC-5 cells. To be noted: 72 h; 0.003-100 µM.
Data set [1] addresses recombinant SARS-CoV-1 nucleocapsid protein (Severe acute respiratory syndrome coronavirus, UniProt P59595). Briefly: biochemical. The format is binding.
Another data set can be described thus: in vitro. To be noted: human.
In data set [2] the target is recombinant SARS-CoV-2 nucleocapsid protein (full-length NP, aa 1–419) (Severe acute respiratory syndrome coronavirus 2, UniProt P0DTC9). Briefly: biochemical. The format is binding.
The test system of the next data set is A549 cells. Particulars: 72 h; 0.003-100 µM.

From publication PMC9503946 (Pharmaceuticals, 2022) come the findings set out here.

The structures appear in SMILES notation. Where “and” joins values, the source holds several entries; their conditions need not be identical. Equal entries are not always repeated.

recombinant SARS-CoV-1 nucleocapsid protein, sequence (P59595 whole entry, looked up): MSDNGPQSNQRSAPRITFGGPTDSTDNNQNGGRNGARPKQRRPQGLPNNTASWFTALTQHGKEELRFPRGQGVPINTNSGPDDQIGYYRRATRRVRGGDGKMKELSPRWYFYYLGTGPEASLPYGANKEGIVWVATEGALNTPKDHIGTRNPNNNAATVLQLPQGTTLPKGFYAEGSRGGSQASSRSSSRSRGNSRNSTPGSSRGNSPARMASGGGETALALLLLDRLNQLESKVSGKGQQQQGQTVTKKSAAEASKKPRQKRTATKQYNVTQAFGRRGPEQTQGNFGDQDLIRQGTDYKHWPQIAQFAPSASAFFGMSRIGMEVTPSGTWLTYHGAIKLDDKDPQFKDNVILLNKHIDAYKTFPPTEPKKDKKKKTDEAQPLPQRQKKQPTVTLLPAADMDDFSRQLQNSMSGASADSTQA

As for `Cc1ccc2ccccc2c1COc1ccc2c(C)c(CC(=O)N3CCC4(O)CCCCC4C3)c(=O)oc2c1C` (stereo not drawn) [Compound 1, 3-[2-(4a-hydroxy-decahydroisoquinolin-2-yl)-2-oxoethyl]-4,8-dimethyl-7-[(2-methylnaphthalen-1-yl)methoxy]-2H-chromen-2-one], in the data set on MRC-5 cells, the “IC50 (cytotoxicity)” value is listed as “no toxicity”. For the same molecule, the Kd in data set [1] was determined as 14.6 ± 0.44 µM. The same molecule registered an IC50 in the data set “in vitro” of 51 ± 8.13 µM.
Regarding `Cc1c(CC(=O)N2CCC3(O)CCCCC3C2)c(=O)oc2cc3occ(-c4ccc5ccccc5c4)c3cc12` (stereo not drawn) [Compound 2, 6-[2-(4a-hydroxy-decahydroisoquinolin-2-yl)-2-oxoethyl]-5-methyl-3-(naphthalen-2-yl)-7H-furo [3,2-g]chromen-7-one], the Kd in data set [2] worked out at 22.8 ± 1.52 µM.
For `Cc1c(CC(=O)N2CCC3(O)CCCCC3C2)c(=O)oc2c(C)c3occ(-c4ccc5ccccc5c4)c3cc12` (stereo not drawn) [Compound 4, 6-[2-(4a-hydroxy-decahydroisoquinolin-2-yl)-2-oxoethyl]-5,9-dimethyl-3-(naphthalen-2-yl)-7H-furo[3,2-g]chromen-7-one], the Kd in data set [1] was 0.674 µM and < 1 µM. In the data set on A549 cells, the “IC50 (cytotoxicity)” value is given as “no toxicity”.
